Test results taken from patent US12138251B2, “Fibrosis drug” (SCIENCE FARM LTD., priority 2019, dated 2024).

Assays:
[1] = tested on: InMyoFib human colon myofibroblast cell line; test: Immunoblot study of HPH-15 on TGF-β1-stimulated InMyoFib cells; assay type: cell-based; conditions: InMyoFib cells stimulated with TGF-β1 (5 ng/ml) and HPH-15 for 24 hours
From the text: An InMyoFib human colon myofibroblast cell line, which reproduces an inflammatory bowel disease, was used. The culture condition was as follows: culture medium SmBM with 5% fetal bovine serum (FBS), antibiotics, and growth factors (insulin, hFGF-B, hEGF, FBS, and gentamicin/amphotericin-B). Cells at 10 to 17 passages were used.

[2] = tested on: bleomycin (BLM)-induced scleroderma mouse model
Experimental: An eight-to-ten-week-old female C57BL/6 mouse was injected subcutaneously with 150 μl of bleomycin (dissolved in physiological saline at 1 mg/ml) or with 150 μl of physiological saline as a control on the shaved back once a day for 6 weeks on alternate days. […] For each group, the body weights of the mice before the start of the test and at the time of the tissue collection (6 weeks later) were measured and compared. A Student's t-test was used for statistics. Four mice are used for each group. […] Mouse skin tissue for HE staining was collected with a scalpel and a knife. The skin tissue was fixed with 4% paraformaldehyde, and HE-stained slides were prepared from the paraffin block. A representative stained image of each group was shown (FIG. 4b). • c. For the dermal thickness, the distance between the epidermis-dermis boundary and the subcutaneous fatty tissue was measured using HE staining. For statistics, a parametric multiple comparison test by the Tukey-Kramer method was performed. Four mice were used for each group. […] In order to compare the amounts of collagen in the skin tissues, the skins were collected using a 4 mm Derma punch centering on the bleomycin-injected site on the back skin of the mice. For the measurement of the amount of collagen, Sircol Soluble Collagen Assay Kit (#S1000, Funakoshi Co., Ltd.) was used. The amount (μg) of collagen in the skin tissue was graphed using four mice for each group. For statistics, the Tukey-Kramer method was used.

Human dermal fibroblasts = test: Immunoblot study of HPH-15 on TGF-β-treated human dermal fibroblasts; assay type: cell-based; conditions: after 2 ng/mL TGF-β for 24 hours, FIG. 3
From the text: Collagen was observed by immunoblot.

CC(C)(C)SCCNC(=S)c1cccc(C(=S)NCCSC(C)(C)C)n1 [HPH-15]
amount of phosphorylated Smad (P-Smad) ([1]; FIG. 1): reduced by the HPH-15 treatment in a dose-dependent manner
amount of collagen I ([1]; FIG. 2): reduced by the HPH-15 treatment in a dose-dependent manner
dermal thickness increased by bleomycin ([2]; HPH-15 dose of 50 mg/kg/day or more, oral, 4 weeks, HE staining, FIGS. 4b, c): significantly reduced
systemic condition of the mice ([2]; each dose 50, 100, 200, 300 mg/kg/day oral for 4 weeks, 6 weeks after the start of the test): kept well
body weight at skin collection compared with before the start of the test ([2]; each dose 50, 100, 200, 300 mg/kg/day oral for 4 weeks, 6 weeks after the start of the test, FIG. 4a): no significant decrease in body weight
expression of collagen (Human dermal fibroblasts; 5 μM HPH-15, 48 hours): suppressed
expression of collagen (Human dermal fibroblasts; 10 μM HPH-15, 48 hours): suppressed
